Results from patent US20210128736A1, “STEREOCOMPLEX OF OLIGOLACTIC ACID CONJUGATES IN MICELLES FOR IMPROVED PHYSICAL STABILITY AND ENHANCED ANTITUMOR EFFICACY” (Wisconsin Alumni Research Foundation, priority 2018, published 2021).

Legend:
[1] = tested on: subcutaneous tumors; conditions: cited from earlier work
[2] = mice, reported; cited from earlier work
[3] = tested on: PANC-1 pancreatic cancer cells; assay: In vitro cytotoxicity, CellTiter-Blue Cell Viability Assay, PANC-1; type: cell-based; conditions: Homo sapiens; PANC-1 cells, 72 hours incubation; micelles at 15% loading
Procedure: (§1) In vitro cytotoxicity studies. […] A549 cells were seeded into a 96-well plate at a seeding density of 1,500 cells/100 μL/well and cultured in RPMI 1640 medium, or PANC-1 cells were seeded into a 96-well plate at a seeding density of 5,000 cells/100 μL/well and cultured in Dulbecco Modified Eagle Medium (DMEM), at 37° C. in 5% CO2 incubator for 24 h. […] Cells cultured with diluted PBS in medium was used as controls. Drug treated cells were placed in an incubator at 5% CO2 at 37° C. for 72 h. The medium in each well was aspirated, and 100 μL of 20% (v/v) CellTiter-Blue reagent in serum free RPMI 1640 or DMEM was added, followed by incubation at 37° C. in 5% CO2 atmosphere for 1.5 h. Fluorescence intensity was measured by a SpectraMax M2 plate reader (Molecular Devices, San Jose, Calif.) with excitation and emission at 560 and 590 nm, respectively. The half maximal inhibitory drug concentration (IC50) was determined by using GraphPad Prism version 5.00 for Windows (GraphPad Software, La Jolla, Calif.).

[4] = tested on: A549 non-small cell lung cancer xenograft; assay: In vivo antitumor efficacy in A549 xenograft model; design: species or system female athymic nude mice; conditions: 3-weekly I.V. injections at 10 mg/kg equivalent of GEM; micelles 5% loading; vs saline control
Procedure: In vivo antitumor efficacy studies. […] 6-8 week-old female athymic nude mice (20-25 g each) were acquired from laboratory animal resources at School of Medicine and Public Health, University of Wisconsin-Madison. Mice were housed in ventilated cages with free access to water and food and acclimated for 1 week prior tumor cell injection. A549 cells (2×10^6 cells in 100 μL of serum-free RPMI 1640 medium) were harvested from sub-confluent cultures after trypsinization and were injected subcutaneously into the right flank of each mouse. […] Drugs were administered via tail vein for 3 weekly injections. Body weight and tumor volume were monitored over the course of study. Tumor volume was calculated using the formula: V=(a×b^2)/2, where V is tumor volume, a is tumor length, b is tumor width.

[5] = Stability in rat plasma at 37° C. (RP-HPLC); conditions: 24 hours
[6] = tested on: human A549 non-small lung cancer cells; assay: In vitro cytotoxicity, CellTiter-Blue Cell Viability Assay, A549; type: cell-based; conditions: 72 hours incubation, micelles at 15% loading
Procedure: as §1

## Nc1ccn([C@@H]2O[C@H](CO)[C@@H](O)C2(F)F)c(=O)n1 [GEM, Gemcitabine]
[1]; mice bearing subcutaneous tumors
  dose required to inhibit tumor growth: 100 mg/kg
[1]; mice, GEM at 10 mg/kg
  efficacy against subcutaneous tumors: generally ineffective
[2]
  maximum tolerated doses (MTD): 100 mg/kg
[3]
  IC50: ~9.2 µM
[4]
  antitumor efficacy (tumor growth, relative tumor volume): not effective
[5]
  intact GEM detected after incubation in plasma: less than 50%
[6]
  IC50: ~1100 nM
